Experimental data reported in article PMC4053396, “Cloning, expression and biochemical characterization of the cholesterol oxidase CgChoA from Chryseobacterium gleum” (BMC Biotechnology, 2014).

T1: CgChoA (Chryseobacterium gleum, UniProt A0ABP2IT22)
T1 construct: gene HMPREF0204_11499
T1 sequence (A0ABP2IT22 1-528): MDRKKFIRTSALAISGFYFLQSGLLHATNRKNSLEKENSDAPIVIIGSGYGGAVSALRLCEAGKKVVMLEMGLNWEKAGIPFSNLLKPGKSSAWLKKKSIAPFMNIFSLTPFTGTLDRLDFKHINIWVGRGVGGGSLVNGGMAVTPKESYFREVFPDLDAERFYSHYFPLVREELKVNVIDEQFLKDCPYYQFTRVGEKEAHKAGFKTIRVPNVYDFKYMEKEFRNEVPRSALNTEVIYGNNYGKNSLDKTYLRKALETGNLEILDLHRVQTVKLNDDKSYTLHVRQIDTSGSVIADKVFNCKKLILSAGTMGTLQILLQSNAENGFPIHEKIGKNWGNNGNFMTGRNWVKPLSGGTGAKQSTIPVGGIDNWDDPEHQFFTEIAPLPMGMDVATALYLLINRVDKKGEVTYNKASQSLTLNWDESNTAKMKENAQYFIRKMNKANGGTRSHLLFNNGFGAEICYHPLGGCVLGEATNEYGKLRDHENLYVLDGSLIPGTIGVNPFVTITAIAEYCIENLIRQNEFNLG

B1: CgChoA (Chryseobacterium gleum ATCC 35910) (protein)
chain: T1 sequence (A0ABP2IT22 1-528)

Legend:
CgChoA = target: T1, CgChoA; assay: UV-vis spectrum of purified protein and of supernatant after boiling; assay type: binding; conditions: co-purified cofactor; non-covalently bound
[1] = substrate: CC(C)CCC[C@@H](C)[C@H]1CC[C@H]2[C@@H]3CC=C4C[C@@H](O)CC[C@]4(C)[C@H]3CC[C@]12C; assay: HRP-coupled H2O2 assay, initial rates; assay type: biochemical, Chryseobacterium gleum; conditions: cholesterol dispersed in water with taurocholate as sole surfactant, 0.011 M MOPS pH 6.75, 35°C, O2 as co-substrate

Molecule | UV-vis spectrum of purified protein and of supernatant after boiling (CgChoA) | Km [1] [µM]
Cc1cc2nc3c(=O)[nH]c(=O)nc-3n(C[C@H](O)[C@H](O)[C@H](O)COP(=O)(O)OP(=O)(O)OC[C@H]3O[C@@H](n4cnc5c(N)ncnc54)[C@H](O)[C@@H]3O)c2cc1C [FAD] | Only FAD that is non-covalently associated with the enzyme is detectable by this method | 
B1 |  | 500
